Reference: PubChem BioAssay (NCI)
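Assay format: 96-well plates, 48-hour exposure. TGI: total growth inhibition.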

Legend:
Assay in all cases: inhibition of tumour cell growth, NCI panel, 48 h
[1] = tested on: 786-0 renal
[2] = tested on: A549 NSCLC
[3] = tested on: ACHN renal
[4] = tested on: BT-549 breast
[5] = tested on: CAKI-1 renal
[6] = tested on: CCRF-CEM leukemia
[7] = tested on: COLO 205 colon
[8] = tested on: DU-145 prostate
[9] = tested on: EKVX NSCLC
[10] = tested on: HCT-116 colon
[11] = tested on: HCT-15 colon
[12] = tested on: HL-60(TB) leukemia
[13] = tested on: HOP-62 NSCLC
[14] = tested on: HOP-92 NSCLC
[15] = tested on: HS 578T breast
[16] = tested on: HT29 colon
[17] = tested on: IGROV1 ovarian
[18] = tested on: K-562 leukemia
[19] = tested on: KM12 colon
[20] = tested on: LOX IMVI melanoma
[21] = tested on: M14 melanoma
[22] = tested on: MCF7 breast
[23] = tested on: MDA-MB-231 breast
[24] = tested on: MDA-MB-435
[25] = tested on: MDA-N
[26] = tested on: MOLT-4 leukemia
[27] = tested on: NCI-H226 lung
[28] = tested on: NCI-H23 lung
[29] = tested on: NCI-H460 lung
[30] = tested on: NCI-H522 lung
[31] = tested on: NCI/ADR-RES ovarian
[32] = tested on: OVCAR-3 ovarian
[33] = tested on: OVCAR-4 ovarian
[34] = tested on: OVCAR-5 ovarian
[35] = tested on: OVCAR-8 ovarian
[36] = tested on: PC-3 prostate
[37] = tested on: RXF 393 renal
[38] = tested on: SF-268 CNS
[39] = tested on: SF-295 CNS
[40] = tested on: SF-539 CNS
[41] = tested on: SK-MEL-28 melanoma
[42] = tested on: SK-MEL-5 melanoma
[43] = tested on: SK-OV-3 ovarian
[44] = tested on: SN12C renal
[45] = tested on: SNB-19 CNS
[46] = tested on: SNB-75 CNS
[47] = tested on: SR leukemia
[48] = tested on: SW-620 colon
[49] = tested on: T-47D breast
[50] = tested on: TK-10 renal
[51] = tested on: U251 CNS
[52] = tested on: UACC-257 melanoma
[53] = tested on: UACC-62 melanoma
[54] = tested on: UO-31 renal
[55] = tested on: A498 renal
[56] = tested on: HCC-2998 colon
[57] = tested on: MALME-3M melanoma
[58] = tested on: RPMI-8226 leukemia
[59] = tested on: SK-MEL-2 melanoma

Compound: CC1=C(C(=O)OCc2ccncc2)C(C2=C(C)SCCS2)C(C(=O)OCc2ccncc2)=C(C)N1
- TGI [1]: > 100 µM
- TGI [2]: > 100 µM
- TGI [3]: > 100 µM
- TGI [4]: 42.2 µM
- TGI [5]: > 100 µM
- TGI [6]: 59.8 µM
- TGI [7]: > 100 µM
- TGI [8]: > 100 µM
- TGI [9]: > 100 µM
- TGI [10]: 32.2 µM
- TGI [11]: 64.7 µM
- TGI [12]: 79.3 µM
- TGI [13]: 58.6 µM
- TGI [14]: 31.5 µM
- TGI [15]: 58.3 µM
- TGI [16]: 40 µM
- TGI [17]: > 100 µM
- TGI [18]: 59.2 µM
- TGI [19]: 47.5 µM
- TGI [20]: 35.8 µM
- TGI [21]: 71 µM
- TGI [22]: 52 µM
- TGI [23]: 91.9 µM
- TGI [24]: 38.9 µM
- TGI [25]: 72.8 µM
- TGI [26]: 49.2 µM
- TGI [27]: 42.7 µM
- TGI [28]: 76.5 µM
- TGI [29]: 73.5 µM
- TGI [30]: 54 µM
- TGI [31]: > 100 µM
- TGI [32]: 38.8 µM
- TGI [33]: > 100 µM
- TGI [34]: > 100 µM
- TGI [35]: > 100 µM
- TGI [36]: 52.4 µM
- TGI [37]: 27.4 µM
- TGI [38]: > 100 µM
- TGI [39]: 38 µM
- TGI [40]: 33 µM
- TGI [41]: 34 µM
- TGI [42]: 28.6 µM
- TGI [43]: 88 µM
- TGI [44]: 70.6 µM
- TGI [45]: 87.5 µM
- TGI [46]: 66.6 µM
- TGI [47]: > 100 µM
- TGI [48]: 64.6 µM
- TGI [49]: 42.8 µM
- TGI [50]: > 100 µM
- TGI [51]: 33.2 µM
- TGI [52]: 50.1 µM
- TGI [53]: 73.6 µM
- TGI [54]: 37.9 µM

Compound: O=C1c2scc(-c3ccccc3)c2-n2cccc21
- TGI [1]: 28 µM
- TGI [55]: 5.02 µM
- TGI [2]: 42.6 µM
- TGI [3]: > 100 µM
- TGI [4]: > 100 µM
- TGI [5]: 31.9 µM
- TGI [6]: 60.8 µM
- TGI [7]: 31.7 µM
- TGI [8]: > 100 µM
- TGI [9]: 25.4 µM
- TGI [56]: 59.5 µM
- TGI [10]: 26.2 µM
- TGI [11]: > 100 µM
- TGI [13]: 38.1 µM
- TGI [15]: 24 µM
- TGI [16]: 25.3 µM
- TGI [17]: 17.7 µM
- TGI [19]: 27.3 µM
- TGI [20]: 27.9 µM
- TGI [21]: 33.3 µM
- TGI [57]: 30.7 µM
- TGI [22]: 52.9 µM
- TGI [23]: 31.4 µM
- TGI [24]: 29 µM
- TGI [25]: 50 µM
- TGI [26]: 37.9 µM
- TGI [27]: 25 µM
- TGI [29]: > 100 µM
- TGI [30]: 25.2 µM
- TGI [31]: 35.4 µM
- TGI [32]: 38.1 µM
- TGI [33]: > 100 µM
- TGI [34]: 48 µM
- TGI [35]: 27.4 µM
- TGI [36]: 41.2 µM
- TGI [58]: 34.1 µM
- TGI [37]: 29.9 µM
- TGI [38]: 30.3 µM
- TGI [39]: 36 µM
- TGI [59]: 30.7 µM
- TGI [41]: 28.8 µM
- TGI [42]: 30 µM
- TGI [43]: 44.7 µM
- TGI [44]: 74.8 µM
- TGI [45]: 42 µM
- TGI [46]: 27.2 µM
- TGI [47]: 47.2 µM
- TGI [48]: 34.1 µM
- TGI [49]: 80.9 µM
- TGI [50]: > 100 µM
- TGI [51]: 27.7 µM
- TGI [52]: > 100 µM
- TGI [53]: 55.6 µM
- TGI [54]: > 100 µM
